Results as given in patent publication US8748608B2, “4-phenylpiperazine derivatives with functionalized linkers as dopamine D3 receptor selective ligands and methods of use” (The United States of America as Represented by the …, priority 2007, dated 2014).
Structures can show the parent of a compound that is named as a salt.

Columns and labels:
[1] = target: human dopamine D3 receptor (Homo sapiens (Human), UniProt P35462); test: Human D2-like receptor competition binding in HEK cells, D3; conditions: for Ki: HEK cells, hD3, read-out: D3 Ki; for D2/D3: ratio of Ki at D2 over Ki at D3
Description: (§1) Human dopamine D2-long (D2) and D3 (D3) receptors were expressed in HEK cells. In brief, stably transfected HEK cells expressing the human D2-long and the D3 dopamine receptor were developed using the pIRES bicistronic expression vector (CLONTECH; Palo Alto, Calif.). […] For comparison, human dopamine D4 (D4) receptors were obtained from HEK 293 cells stably transfected with a PCR product of a human cDNA coding for the D4.4 form of the human D4 dopamine receptor.
(§2) The procedures to determine the binding affinities at the human dopamine D2-like receptors, the binding affinities at the serotonin 5HT1A, 5HT2A and 5HT2c receptors and functional mitogenesis assay are known in the art. […] Both of these references are incorporated by reference.

[2] = target: human dopamine D2-long (D2) receptor (Homo sapiens (Human), UniProt P14416); test: Human D2-like receptor competition binding in HEK cells, D2; conditions: hD2L
Description: as §1, §2

[3] = target: human D4.4 dopamine receptor (Homo sapiens (Human), UniProt P21917); test: Human D2-like receptor competition binding in HEK cells, D4; conditions: for Ki: HEK 293 cells, hD4.4; for D4/D3 Ki ratio: head printed D4/D2, values correspond to D4 Ki over D3 Ki
Description: as §1, §2

Sequence of human D4.4 dopamine receptor (P21917 whole entry): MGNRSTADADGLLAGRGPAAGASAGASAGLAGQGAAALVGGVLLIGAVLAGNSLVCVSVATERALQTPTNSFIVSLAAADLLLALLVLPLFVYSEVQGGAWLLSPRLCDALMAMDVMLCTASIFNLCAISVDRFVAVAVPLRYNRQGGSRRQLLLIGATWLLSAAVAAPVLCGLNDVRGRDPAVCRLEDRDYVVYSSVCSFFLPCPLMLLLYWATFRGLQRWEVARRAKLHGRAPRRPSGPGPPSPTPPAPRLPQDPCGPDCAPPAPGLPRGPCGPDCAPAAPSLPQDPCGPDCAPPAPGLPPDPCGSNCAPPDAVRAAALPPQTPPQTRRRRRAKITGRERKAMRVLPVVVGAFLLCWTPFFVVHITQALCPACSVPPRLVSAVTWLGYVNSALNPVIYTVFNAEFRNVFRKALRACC
Sequence of human dopamine D3 receptor (P35462 whole entry): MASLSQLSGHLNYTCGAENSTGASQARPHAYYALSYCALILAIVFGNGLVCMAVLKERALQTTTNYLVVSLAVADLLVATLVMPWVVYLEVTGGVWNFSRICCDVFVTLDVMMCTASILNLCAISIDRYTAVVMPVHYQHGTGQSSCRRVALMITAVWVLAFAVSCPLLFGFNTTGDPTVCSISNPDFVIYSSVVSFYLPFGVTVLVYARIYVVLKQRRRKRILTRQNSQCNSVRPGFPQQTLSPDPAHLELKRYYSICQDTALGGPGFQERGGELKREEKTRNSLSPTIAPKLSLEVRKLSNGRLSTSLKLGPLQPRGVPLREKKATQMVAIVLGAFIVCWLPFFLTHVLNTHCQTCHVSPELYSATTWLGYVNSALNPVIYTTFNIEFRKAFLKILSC
Sequence of human dopamine D2-long (D2) receptor (P14416 whole entry): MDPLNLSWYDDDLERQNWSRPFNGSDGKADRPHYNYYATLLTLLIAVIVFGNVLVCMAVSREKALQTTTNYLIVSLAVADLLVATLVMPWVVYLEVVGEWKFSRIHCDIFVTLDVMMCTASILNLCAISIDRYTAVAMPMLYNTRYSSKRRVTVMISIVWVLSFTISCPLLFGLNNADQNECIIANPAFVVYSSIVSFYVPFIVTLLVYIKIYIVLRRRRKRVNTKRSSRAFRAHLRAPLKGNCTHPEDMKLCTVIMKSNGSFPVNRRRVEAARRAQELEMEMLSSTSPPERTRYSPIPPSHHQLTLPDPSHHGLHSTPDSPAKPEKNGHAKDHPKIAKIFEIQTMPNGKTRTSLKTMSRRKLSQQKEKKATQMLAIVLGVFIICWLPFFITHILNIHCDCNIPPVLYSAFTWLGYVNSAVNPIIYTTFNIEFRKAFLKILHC

Row | Structure (SMILES) | Ki [1] [nM] | D2/D3 [1] | Ki [2] [nM] | Ki [3] [nM] | D4/D3 Ki ratio [3] | melting point [°C]
1 | CCCOc1ccccc1N1CCN(CC(O)CCNC(=O)c2cc3ccccc3[nH]2)CC1 (centres unmarked) [Compound 38] | 62.1 | 1 | 47.1 | – | – | –
2 | COc1ccc2oc(C(=O)NCCC(O)CN3CCN(c4cccc(Cl)c4Cl)CC3)cc2c1 (centres unmarked) [Compound 48] | 1.3 | 185 | 244 | – | – | –
3 | COc1ccccc1N1CCN(CC(O)CCNC(=O)c2ccc3c(c2)Cc2ccccc2-3)CC1 (centres unmarked) [Compound 19, N-(3-Hydroxy-4-(4-(2-methoxyphenyl)piperazin-1-yl)-butyl)-9H-fluorene-2-carboxamide] | 1.8 | 138 | 249 | 1230 | 683 | –
4 | COc1ccccc1N1CCN(CC(O)CCNC(=O)c2cc3cc(F)ccc3o2)CC1 (centres unmarked) [Compound 47] | 0.65 | 276 | 180 | – | – | –
5 | COc1ccccc1N1CCN(CC(O)CCNC(=O)c2cc3ccccc3[nH]2)CC1 (centres unmarked) [Compound 35] | 1.37 | 181 | 249 | 1920 | 1401 | –
6 | O=C(NC/C=C/CN1CCN(c2cccc(Cl)c2Cl)CC1)c1ccc(-c2cccc(=O)[nH]2)cc1 (as salt: oxalate) [Compound 9, N-(4-(4-(2,3-Dichloro-phenyl)-piperazin-1-yl)-trans-but-2-enyl)-4-(6-oxo-1,6-dihydro-pyridin-2-yl)-benzamide] | – | – | – | – | – | 153 to 154
7 | COc1ccc2oc(C(=O)NCCC(O)CN3CCN(c4ccccc4OC)CC3)cc2c1 (centres unmarked) [Compound 49] | 1 | 172 | 174 | – | – | –
8 | O=C(NCCC(O)CN1CCN(c2cccc(Cl)c2Cl)CC1)c1ccc2c(c1)Cc1ccccc1-2 (centres unmarked) (as salt: oxalate) [Compound 17] | – | – | – | – | – | 188 to 190
9 | O=C(NCCC(O)CN1CCN(c2cccc(Cl)c2Cl)CC1)c1cc2ccccc2o1 (centres unmarked) [Compound 42] | 0.98 | 188 | 185 | – | – | –
10 | O=C(NC/C=C/CN1CCN(c2cccc(Cl)c2Cl)CC1)c1ccc(-c2cccc[n+]2[O-])cc1 (as salt: oxalate) [Compound 12, N-(4-(4-(2,3-Dichloro-phenyl)-piperazin-1-yl)-trans-but-2-enyl)-4-(pyridin-N-oxide-2-yl)-benzamide] | – | – | – | – | – | 153 to 154
11 | COc1ccccc1N1CCN(CCCCNC(=O)c2ccc3c(c2)Cc2ccccc2-3)CC1 (as salt: hydrochloride) [Compound 7, N-(4-(4-(2-Methoxyphenyl)piperazin-1-yl)butyl)-9H-fluorene-2-carboxamide] | – | – | – | – | – | 208 to 210
12 | COc1ccccc1N1CCN(CCC(O)CNC(=O)c2ccc3c(c2)Cc2ccccc2-3)CC1 (centres unmarked) [Compound 23, N-(4-(4-(2-Methoxyphenyl)piperazin-1-yl)-2-hydroxybutyl)-9H-fluorene-2-carboxamide] | 1.3 | 53 | 68.4 | – | – | –
13 | COc1ccccc1N1CCN(CCC(O)CNC(=O)c2cc3ccccc3[nH]2)CC1 (centres unmarked) [Compound 37] | 0.5 | 105 | 52.5 | – | – | –
14 | COc1ccccc1N1CCN(CC(O)CCNC(=O)c2cc3ccccc3o2)CC1 (centres unmarked) [Compound 43] | 5.4 | 43 | 233 | – | – | –
15 | O=C(NCC(O)CCN1CCN(c2cccc(Cl)c2Cl)CC1)c1ccc2c(c1)Cc1ccccc1-2 (centres unmarked) [Compound 22, N-(4-(4-(2,3-Dichlorophenyl)piperazin-1-yl)-2-hydroxybutyl)-9H-fluorene-2-carboxamide] | 2.5 | 34 | 84 | – | – | –
16 | O=C(NC/C=C/C[N+]1([O-])CCN(c2cccc(Cl)c2Cl)CC1)c1ccc(-c2ccccn2)cc1 [Compound 13, 4-(2,3-Dichlorophenyl)-1-(4-(4-(pyridin-2-yl)benzamido)-trans-but-2-enyl)-piperazine 1-oxide] | 49.2 | 24 | 1160 | – | – | –
17 | O=C(NCCC(O)CN1CCN(c2cccc(Cl)c2Cl)CC1)c1cc2cc(F)ccc2o1 (centres unmarked) [Compound 46] | 1.6 | 149 | 245 | – | – | –
18 | COc1ccccc1N1CCN(CC(O)CCNC(=O)c2cc3cc(I)ccc3o2)CC1 (centres unmarked) [Compound 44] | 2.2 | 71 | 158 | – | – | –
19 | O=C(NCCC(O)CN1CCN(c2cccc(Cl)c2Cl)CC1)c1cc2cc(I)ccc2o1 (centres unmarked) [Compound 45] | 3.5 | 200 | 697 | – | – | –
20 | COc1ccccc1N1CCN(C/C=C/CNC(=O)c2ccc3c(c2)Cc2ccccc2-3)CC1 (as salt: hydrochloride) [Compound 15, N-(4-(4-(2-methoxyphenyl)piperazin-1-yl)-trans-but-2-enyl)-9H-fluorene-2-carboxamide] | – | – | – | – | – | 224 to 226
21 | O=C(NCC(O)CCN1CCN(c2cccc(Cl)c2Cl)CC1)c1cc2ccccc2[nH]1 (centres unmarked) [Compound 36] | 0.26 | 109 | 28.4 | – | – | –
22 | Cc1cccc(-c2ccc(C(=O)NC/C=C/CN3CCN(c4cccc(Cl)c4Cl)CC3)cc2)n1 (as salt: oxalate) [Compound 10, N-(4-(4-(2,3-Dichloro-phenyl)-piperazin-1-yl)-trans-but-2-enyl)-4-(6-methyl-pyridin-2-yl)-benzamide] | – | – | – | – | – | 125 to 126
23 | COc1ccccc1N1CCN(C/C=C/CNC(=O)c2ccc(-c3ccccn3)cc2)CC1 (as salt: hydrochloride) [Compound 14, N-(4-(4-(2-Methoxy-phenyl)-piperazin-1-yl)-trans-but-2-enyl)-4-pyridin-2-yl-benzamide] | – | – | – | – | – | 168 to 170
24 | COc1ccccc1N1CCN(CC(O)CCNC(=O)c2cc3ccccc3s2)CC1 (centres unmarked) [Compound 39] | 4.6 | 73 | 337 | – | – | –
